According to PubChem BioAssay AID248 (DTP/NCI, 2004):
“And” between values parts separate entries of the source, which are not always exact repeats. Equal values may be shown once. Toxic doses and inconclusive results are not listed. Rule as the data show it: active = T/C of 150% or more; inactive = T/C below 125%.

Tested on: L1210 leukemia ip in BDF1 mice, survival T/C
Experiment: NCI In Vivo Anticancer Drug Screen. Data for tumor model L1210 Leukemia (intraperitoneal) in B6D2F1 (BDF1) mice
Settings: endpoint: mean survival time, higher = longer survival
Procedure, shortened: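 Mice bearing the transplanted tumor received compound or vehicle. Survival of the treated group was divided by that of the vehicle-treated control group to give the ratio.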

[1] = dose: 100.0 mg/kg/injection, schedule: Q01DX009 (ip), vehicle: Klucel (hydroxypropylcellulose) (HPC)
[2] = dose: 200.0 mg/kg/injection, schedule: Q01DX009 (ip), vehicle: Klucel (hydroxypropylcellulose) (HPC)
[3] = dose: 400.0 mg/kg/injection, schedule: Q01DX009 (ip), vehicle: Klucel (hydroxypropylcellulose) (HPC)
[4] = dose: 100.0 mg/kg/injection, schedule: Q04DX003 (ip), vehicle: Klucel (hydroxypropylcellulose) (HPC)
[5] = dose: 200.0 mg/kg/injection, schedule: Q04DX003 (ip), vehicle: Klucel (hydroxypropylcellulose) (HPC)
[6] = dose: 50.0 mg/kg/injection, schedule: Q01DX009 (ip), vehicle: saline
[7] = dose: 100.0 mg/kg/injection, schedule: Q04DX003 (ip), vehicle: saline
[8] = dose: 200.0 mg/kg/injection, schedule: Q04DX003 (ip), vehicle: saline
[9] = dose: 400.0 mg/kg/injection, schedule: Q04DX003 (ip), vehicle: saline
[10] = dose: 400.0 mg/kg/injection, schedule: Q04DX003 (ip), vehicle: Klucel (hydroxypropylcellulose) (HPC)
[11] = dose: 100.0 mg/kg/injection, schedule: Q01DX009 (ip), vehicle: saline with Tween-80
[12] = dose: 200.0 mg/kg/injection, schedule: Q01DX009 (ip), vehicle: saline with Tween-80
[13] = dose: 400.0 mg/kg/injection, schedule: Q01DX009 (ip), vehicle: saline with Tween-80
[14] = dose: 100.0 mg/kg/injection, schedule: Q04DX003 (ip), vehicle: saline with Tween-80
[15] = dose: 200.0 mg/kg/injection, schedule: Q04DX003 (ip), vehicle: saline with Tween-80
[16] = dose: 400.0 mg/kg/injection, schedule: Q04DX003 (ip), vehicle: saline with Tween-80
[17] = dose: 100.0 mg/kg/injection, schedule: Q01DX009 (ip), vehicle: other
[18] = dose: 200.0 mg/kg/injection, schedule: Q01DX009 (ip), vehicle: other

Measured: T/C

CCCCCCCCC(=O)N(CCCC)CCCC
inactive: dose: 100.0 mg/kg/injection, schedule: Q01DX009 (ip), vehicle: carboxymethylcellulose (CMC) 97 % of control and 100 % of control | dose: 100.0 mg/kg/injection, schedule: Q04DX002 (ip), vehicle: carboxymethylcellulose (CMC) 94 % of control | dose: 200.0 mg/kg/injection, schedule: Q01DX009 (ip), vehicle: carboxymethylcellulose (CMC) 93 % of control and 100 % of control | dose: 200.0 mg/kg/injection, schedule: Q04DX002 (ip), vehicle: carboxymethylcellulose (CMC) 93 % of control | dose: 400.0 mg/kg/injection, schedule: Q01DX009 (ip), vehicle: carboxymethylcellulose (CMC) 89 % of control | dose: 400.0 mg/kg/injection, schedule: Q04DX002 (ip), vehicle: carboxymethylcellulose (CMC) 93 % of control

COC(=O)c1ccccc1NC(=O)Nc1ccc(F)c([N+](=O)[O-])c1
inactive: dose: 25.0 mg/kg/injection, schedule: Q01DX009 (ip), vehicle: Klucel (hydroxypropylcellulose) (HPC) 109 % of control | dose: 50.0 mg/kg/injection, schedule: Q01DX009 (ip), vehicle: Klucel (hydroxypropylcellulose) (HPC) 103 % of control | [1] 93 % of control and 89 % of control | [2] 95 % of control | [3] 93 % of control

O=C1C(Br)=CC(Br)=C/C1=N/Br
inactive: dose: 50.0 mg/kg/injection, schedule: Q04DX003 (ip), vehicle: Klucel (hydroxypropylcellulose) (HPC) 108 % of control | [4] 97 % of control | [5] 93 % of control

Cc1cc(O)c2c(c1O)C(=O)c1ccccc1C2=O
inactive: [6] 95 % of control | dose: 100.0 mg/kg/injection, schedule: Q01DX009 (ip), vehicle: saline 95 % of control | [7] 98 % of control | dose: 200.0 mg/kg/injection, schedule: Q01DX009 (ip), vehicle: saline 95 % of control | [8] 96 % of control | dose: 400.0 mg/kg/injection, schedule: Q01DX009 (ip), vehicle: saline 104 % of control | [9] 93 % of control

Cc1cc(N(C)C)ccc1C=O
inactive: [1] 94 % of control | [4] 97 % of control | [2] 105 % of control | [5] 105 % of control | [3] 103 % of control | [10] 98 % of control

CCOP(=O)(/C(=C\c1ccccc1)C(=O)c1ccccc1)c1ccccc1 (centres undefined)
inactive: [1] 96 % of control | [4] 95 % of control | [2] 95 % of control | [5] 98 % of control | dose: 300.0 mg/kg/injection, schedule: Q01DX009 (ip), vehicle: Klucel (hydroxypropylcellulose) (HPC) 90 % of control | [10] 98 % of control

CC1(C)CCSC(/C=C/c2ccccc2)=N1
inactive: [7] 100 % of control | [8] 102 % of control | [9] 103 % of control

COc1ccc2c(c1)c(C)cc[n+]2C
inactive: dose: 12.5 mg/kg/injection, schedule: Q01DX001 (ip), vehicle: saline 108 % of control | dose: 12.5 mg/kg/injection, schedule: Q01DX009 (ip), vehicle: saline 109 % of control | dose: 25.0 mg/kg/injection, schedule: Q01DX001 (ip), vehicle: saline 110 % of control | dose: 25.0 mg/kg/injection, schedule: Q01DX009 (ip), vehicle: saline 107 % of control | dose: 50.0 mg/kg/injection, schedule: Q01DX001 (ip), vehicle: saline 110 % of control | [6] 124 % of control

CCCCNC(=O)Oc1cccc(NC(=O)OC)c1
inactive: [11] 96 % of control | [12] 92 % of control | [13] 105 % of control

NC(N)=N/N=C/c1cccc(O)c1
inactive: dose: 63.0 mg/kg/injection, schedule: Q01DX Z (ip), vehicle: saline 112 % of control | dose: 125.0 mg/kg/injection, schedule: Q01DX Z (ip), vehicle: saline 102 % of control

CC(=O)Nc1ccccc1F
inactive: [1] 105 % of control | [4] 101 % of control | [2] 105 % of control | [5] 102 % of control | [3] 103 % of control | [10] 95 % of control

CCCCCCCCOc1ccc(C(c2ccccc2)(c2ccccc2)c2ccccc2)cc1
inactive: dose: 100.0 mg/kg/injection, schedule: Q01DX001 (ip), vehicle: Klucel (hydroxypropylcellulose) (HPC) 90 % of control | dose: 200.0 mg/kg/injection, schedule: Q01DX001 (ip), vehicle: Klucel (hydroxypropylcellulose) (HPC) 89 % of control | dose: 400.0 mg/kg/injection, schedule: Q01DX001 (ip), vehicle: Klucel (hydroxypropylcellulose) (HPC) 89 % of control

CCNC(=O)Nc1ccc(C(=O)O)c(O)c1 (tested in a mixture with another compound)
inactive: [14] 97 % of control | dose: 100.0 mg/kg/injection, schedule: Q04DX003 (sc), vehicle: olive oil, sesame oil, peanut oil 97 % of control | [15] 92 % of control | dose: 200.0 mg/kg/injection, schedule: Q04DX003 (sc), vehicle: olive oil, sesame oil, peanut oil 102 % of control | [16] 102 % of control | dose: 400.0 mg/kg/injection, schedule: Q04DX003 (sc), vehicle: olive oil, sesame oil, peanut oil 97 % of control

CC(C)(C)NC(=O)Oc1ccc2ccccc2c1
inactive: [17] 96 % of control | [18] 102 % of control | dose: 400.0 mg/kg/injection, schedule: Q01DX009 (ip), vehicle: other 100 % of control

COc1ccc(OC)c(NC(=S)N/N=C(\C)c2cc(Cl)ccc2O)c1
inactive: dose: 12.5 mg/kg/injection, schedule: Q04DX002 (ip), vehicle: Klucel (hydroxypropylcellulose) (HPC) 102 % of control | dose: 25.0 mg/kg/injection, schedule: Q04DX002 (ip), vehicle: Klucel (hydroxypropylcellulose) (HPC) 102 % of control | dose: 50.0 mg/kg/injection, schedule: Q04DX002 (ip), vehicle: Klucel (hydroxypropylcellulose) (HPC) 118 % of control

C/C=C(\C)C(=NC)Nc1ccc(Cl)c(Cl)c1
inactive: dose: 222.0 mg/kg/injection, schedule: Q01DX Z (ip), vehicle: methylcellulose (MC) 94 % of control | dose: 333.0 mg/kg/injection, schedule: Q01DX Z (ip), vehicle: methylcellulose (MC) 90 % of control

C(=N\N=C\c1cccs1)/c1cccs1
inactive: [14] 98 % of control | [15] 98 % of control | [16] 95 % of control

CC(=O)NNC(=O)c1cccnc1
inactive: dose: 100.0 mg/kg/injection, schedule: Q01DX001 (ip), vehicle: water 95 % of control | dose: 100.0 mg/kg/injection, schedule: Q01DX009 (ip), vehicle: water 95 % of control | dose: 200.0 mg/kg/injection, schedule: Q01DX001 (ip), vehicle: water 104 % of control | dose: 200.0 mg/kg/injection, schedule: Q01DX009 (ip), vehicle: water 101 % of control | dose: 400.0 mg/kg/injection, schedule: Q01DX001 (ip), vehicle: water 101 % of control | dose: 400.0 mg/kg/injection, schedule: Q01DX009 (ip), vehicle: water 116 % of control | dose: 800.0 mg/kg/injection, schedule: Q01DX009 (ip), vehicle: water 116 % of control

COC(=O)/C=C(\C)Nc1cccc([N+](=O)[O-])c1
inactive: dose: 100.0 mg/kg/injection, schedule: Q01DX001 (ip), vehicle: other 94 % of control

CN(C)/C=C1\NC(=S)NC1=O
inactive: [11] 95 % of control | [12] 95 % of control | [13] 91 % of control

CSc1ccc(NC(=O)Nc2cccc(F)c2)cc1
inactive: [17] 108 % of control | [18] 96 % of control

[NH-]CC(=O)O.[NH-]CC(=O)O.[Pt+2]
inactive: dose: 14.0 mg/kg/injection, schedule: Q01DX009 (ip), vehicle: other 89 % of control | dose: 27.9 mg/kg/injection, schedule: Q01DX001 (ip), vehicle: other 93 % of control | dose: 28.0 mg/kg/injection, schedule: Q01DX009 (ip), vehicle: other 100 % of control | dose: 55.8 mg/kg/injection, schedule: Q01DX001 (ip), vehicle: other 89 % of control | dose: 56.0 mg/kg/injection, schedule: Q01DX009 (ip), vehicle: other 96 % of control | dose: 112.0 mg/kg/injection, schedule: Q01DX001 (ip), vehicle: other 97 % of control | dose: 112.0 mg/kg/injection, schedule: Q01DX009 (ip), vehicle: other 113 % of control | dose: 223.0 mg/kg/injection, schedule: Q01DX001 (ip), vehicle: other 109 % of control
